Measurements reported in the supplement of paper PMC10307832.

Key:
Alpelisib + Dasatinib = compound: Cc1nc(NC(=O)N2CCC[C@H]2C(N)=O)sc1-c1ccnc(C(C)(C)C(F)(F)F)c1 [Alpelisib] + Cc1nc(Nc2ncc(C(=O)Nc3c(C)cccc3Cl)s2)cc(N2CCN(CCO)CC2)n1 [Dasatinib] (partner 0.075 µM); experiment: relative viability (nuclei count vs DMSO), 5 days (fraction); higher = more cells survive
Method in brief: (§1)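 The day after seeding in 1536-well plates, lung cancer cell lines were treated by pin tool with a single drug, or with a fixed anchor-drug dose together with five library-drug doses (not always all listed) in √10 steps. After 5 days, a combined fix-and-stain solution (final 0.05% Triton X-100, 1% formaldehyde, 1 ug/ml Hoechst) was added. Nuclei counted on 4× images gave relative viability as treated counts over vehicle counts, reported as the median of duplicate plates.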

OSI-027 + Trametinib = compound: COc1cccc2cc(-c3nc([C@H]4CC[C@H](C(=O)O)CC4)n4ncnc(N)c34)[nH]c12 [OSI-027] + CC(=O)Nc1cccc(-n2c(=O)n(C3CC3)c(=O)c3c(Nc4ccc(I)cc4F)n(C)c(=O)c(C)c32)c1 [Trametinib] (partner 0.02 µM); experiment: as above
Method in brief: as §1

| Cell Line | relative viability (Alpelisib + Dasatinib; first compound 0.04 µM) | relative viability (Alpelisib + Dasatinib; first compound 0.1265 µM) | relative viability (Alpelisib + Dasatinib; first compound 0.4 µM) | relative viability (Alpelisib + Dasatinib; first compound 1.265 µM) | relative viability (Alpelisib + Dasatinib; first compound 4 µM) | relative viability (OSI-027 + Trametinib; first compound 0.01 µM) | relative viability (OSI-027 + Trametinib; first compound 0.03162 µM) | relative viability (OSI-027 + Trametinib; first compound 0.1 µM) | relative viability (OSI-027 + Trametinib; first compound 0.3162 µM) | relative viability (OSI-027 + Trametinib; first compound 1 µM) |
| --- | --- | --- | --- | --- | --- | --- | --- | --- | --- | --- |
| A-427 | 0.618 | 0.579 | 0.704 | 0.559 | 0.638 | 0.721 | 0.747 | 0.574 | 0.437 | 0.329 |
| HCC-366 | 0.556 | 0.596 | 0.427 | 0.34 | 0.207 | 0.333 | 0.433 | 0.454 | 0.282 | 0.195 |
| NCI-H661 | 0.845 | 0.745 | 0.8 | 0.569 | 0.526 | 0.545 | 0.479 | 0.468 | 0.432 | 0.307 |
| NCI-H2126 | 0.599 | 0.564 | 0.507 | 0.354 | 0.307 | 0.54 | 0.593 | 0.526 | 0.447 | 0.537 |
| LCLC-97TM1 | 0.843 | 0.75 | 0.855 | 0.641 | 0.566 | 0.168 | 0.182 | 0.157 | 0.147 | 0.168 |
| NCI-H2405 | 0.208 | 0.191 | 0.216 | 0.19 | 0.197 | 0.643 | 0.663 | 0.597 | 0.471 | 0.373 |
| COR-L 105 | 0.301 | 0.444 | 0.346 | 0.273 | 0.26 | 0.406 | 0.396 | 0.394 | 0.376 | 0.459 |
| BEN | 0.318 | 0.23 | 0.38 | 0.333 | 0.29 | 0.9 | 0.787 | 0.709 | 0.527 | 0.505 |
| HCC-827 | 0.378 | 0.427 | 0.296 | 0.234 | 0.233 | 0.555 | 0.491 | 0.45 | 0.433 | 0.309 |
| NCI-H3122 | 0.806 | 0.653 | 0.624 | 0.487 | 0.295 | 0.273 | 0.238 | 0.178 | 0.191 | 0.097 |
| LK-2 | 0.327 | 0.287 | 0.257 | 0.185 | 0.186 | 0.766 | 0.578 | 0.594 | 0.406 | 0.221 |
| HCC-15 | 0.559 | 0.587 | 0.56 | 0.379 | 0.31 | 0.317 | 0.365 | 0.352 | 0.283 | 0.238 |
| NCI-H1755 | 0.382 | 0.415 | 0.418 | 0.327 | 0.228 | 0.738 | 0.759 | 0.761 | 0.654 | 0.501 |
| EMC-BAC-2 | 0.31 | 0.291 | 0.28 | 0.228 | 0.208 | 0.857 | 0.927 | 0.816 | 0.797 | 0.503 |
| NCI-H838 | 0.275 | 0.375 | 0.296 | 0.228 | 0.215 | 0.455 | 0.532 | 0.436 | 0.317 | 0.206 |
| NCI-H1650 | 0.316 | 0.309 | 0.322 | 0.257 | 0.271 | 0.485 | 0.504 | 0.614 | 0.6 | 0.408 |
| NCI-H1975 | 0.322 | 0.309 | 0.329 | 0.176 | 0.112 | 0.278 | 0.386 | 0.3 | 0.294 | 0.264 |
| NCI-H522 | 0.952 | 0.772 | 0.786 | 0.709 | 0.647 | 0.691 | 0.709 | 0.725 | 0.632 | 0.463 |
| NCI-H1437 | 0.368 | 0.338 | 0.358 | 0.309 | 0.342 | 0.43 | 0.406 | 0.493 | 0.39 | 0.248 |
| NCI-H1666 | 0.851 | 0.764 | 0.792 | 0.698 | 0.666 | 0.865 | 0.848 | 0.843 | 0.765 | 0.692 |
| NCI-H647 | 0.228 | 0.163 | 0.214 | 0.0992 | 0.123 | 0.367 | 0.395 | 0.438 | 0.385 | 0.236 |
| NCI-H1623 | 0.528 | 0.496 | 0.513 | 0.414 | 0.353 | – | – | – | – | – |
| NCI-H23 | 0.818 | 0.65 | 0.702 | 0.535 | 0.418 | 0.313 | 0.42 | 0.349 | 0.26 | 0.28 |
| NCI-H1915 | 0.29 | 0.28 | 0.313 | 0.268 | 0.276 | 0.284 | 0.299 | 0.262 | 0.233 | 0.314 |
| HOP-62 | 0.608 | 0.598 | 0.755 | 0.539 | 0.531 | 0.383 | 0.347 | 0.375 | 0.329 | 0.294 |
| NCI-H2342 | 0.327 | 0.313 | 0.306 | 0.269 | 0.272 | 0.802 | 0.816 | 0.724 | 0.687 | 0.556 |
| NCI-H520 | 0.184 | 0.218 | 0.153 | 0.174 | 0.149 | 0.644 | 0.606 | 0.563 | 0.379 | 0.188 |

| Cell Line | relative viability (Alpelisib + Dasatinib; first compound 0.04 µM) | relative viability (Alpelisib + Dasatinib; first compound 0.1265 µM) | relative viability (Alpelisib + Dasatinib; first compound 0.4 µM) | relative viability (Alpelisib + Dasatinib; first compound 1.265 µM) | relative viability (Alpelisib + Dasatinib; first compound 4 µM) | relative viability (OSI-027 + Trametinib; first compound 0.01 µM) | relative viability (OSI-027 + Trametinib; first compound 0.03162 µM) | relative viability (OSI-027 + Trametinib; first compound 0.1 µM) | relative viability (OSI-027 + Trametinib; first compound 0.3162 µM) | relative viability (OSI-027 + Trametinib; first compound 1 µM) |
| --- | --- | --- | --- | --- | --- | --- | --- | --- | --- | --- |
| COR-L23 | 0.436 | 0.392 | 0.535 | 0.278 | 0.292 | 0.571 | 0.639 | 0.525 | 0.485 | 0.254 |
| H3255 | 0.403 | 0.345 | 0.363 | 0.315 | 0.256 | 0.527 | 0.594 | 0.514 | 0.476 | 0.414 |
| NCI-H1993 | 0.532 | 0.469 | 0.508 | 0.454 | 0.569 | 0.474 | 0.548 | 0.523 | 0.412 | 0.505 |
| NCI-H1792 | 0.723 | 0.83 | 0.736 | 0.485 | 0.336 | 0.528 | 0.303 | 0.412 | 0.408 | 0.219 |
| SW 1573 | 0.438 | 0.458 | 0.672 | 0.364 | 0.202 | 0.711 | 0.543 | 0.491 | 0.409 | 0.411 |
| NCI-H2085 | 0.275 | 0.225 | 0.265 | 0.263 | 0.215 | 0.504 | 0.514 | 0.429 | 0.313 | 0.281 |
| EPLC-272H | 0.313 | 0.281 | 0.219 | 0.201 | 0.202 | 0.293 | 0.278 | 0.254 | 0.236 | 0.239 |
| HARA | 0.291 | 0.281 | 0.215 | 0.174 | 0.155 | 0.719 | 0.616 | 0.556 | 0.398 | 0.386 |
| LU99A | 0.446 | 0.482 | 0.554 | 0.409 | 0.379 | 0.581 | 0.508 | 0.424 | 0.342 | 0.209 |
| NCI-H2087 | 0.959 | 0.883 | 1.12 | 0.691 | 0.56 | 0.194 | 0.235 | 0.194 | 0.154 | 0.142 |
| NCI-H1734 | 0.42 | – | 0.394 | 0.244 | 0.208 | 0.667 | 0.687 | 0.659 | 0.586 | 0.42 |
| HCC-44 | – | – | – | – | – | 1.04 | 1.07 | 1.05 | 0.942 | 0.795 |
| NCI-H2170 | 0.535 | 0.519 | 0.506 | 0.483 | 0.396 | 1.02 | 0.901 | 0.807 | 0.746 | 0.267 |
| PC-3 [JPC-3] | 0.948 | 0.928 | 0.993 | 0.903 | 0.907 | 0.616 | 0.651 | 0.599 | 0.603 | 0.437 |
| ABC-1 | 0.637 | 0.495 | 0.823 | 0.484 | 0.386 | – | – | – | – | – |
| NCI-H1651 | 0.357 | 0.463 | 0.445 | 0.412 | 0.293 | 0.829 | 0.736 | 0.838 | 0.805 | 0.607 |
| NCI-H1563 | 0.474 | 0.395 | 0.434 | 0.386 | 0.375 | – | – | – | – | – |
| NCI-H460 | 0.42 | 0.484 | 0.457 | 0.245 | 0.174 | 0.152 | 0.13 | 0.145 | 0.129 | 0.12 |
| NCI-H2228 | 0.519 | 0.478 | 0.414 | 0.279 | 0.175 | 0.409 | 0.499 | 0.507 | 0.326 | 0.284 |
| LOU-NH91 | 0.478 | 0.482 | 0.482 | 0.452 | 0.34 | 0.766 | 0.785 | 0.66 | 0.591 | 0.579 |
| RERF-LC-KJ | 0.766 | 0.733 | 0.758 | 0.475 | 0.541 | 0.709 | 0.832 | 0.815 | 0.667 | 0.406 |
| EKVX | 0.556 | 0.572 | 0.544 | 0.407 | 0.266 | 0.413 | 0.359 | 0.3 | 0.293 | 0.313 |
| NCI-H441 | 0.525 | 0.72 | 0.562 | 0.311 | 0.358 | 0.346 | 0.434 | 0.486 | 0.362 | 0.253 |
| NCI-H1395 | 0.461 | 0.376 | 0.457 | 0.356 | 0.394 | 1.1 | 1.02 | 0.957 | 0.863 | 0.648 |
| CAL-12T | 0.34 | 0.275 | 0.483 | 0.27 | 0.232 | 0.315 | 0.334 | 0.336 | 0.235 | 0.242 |
| 201T | 0.561 | 0.487 | 0.541 | 0.434 | 0.359 | 0.742 | 0.716 | 0.717 | 0.717 | 0.674 |
| NCI-H1648 | – | – | – | – | – | 0.481 | 0.449 | – | 0.49 | 0.321 |
